Assay results as given in US11053204B2, “Pyrimidinyloxy benzene derivatives as herbicides” (FMC Corporation, priority 2015, dated 2021).

Experiments:
Assay type in all cases: in vivo
[1] = test system: kochia (Kochia scoparia); assay: Test C preemergence, plant response rating
[2] = test system: oat, wild (wild oat Avena fatua); assay: Test C preemergence, plant response rating
[3] = test system: surinam grass (Brachiaria decumbens); assay: Test C preemergence, plant response rating
[4] = test system: oilseed rape (Brassica napus); assay: Test C postemergence, plant response rating; details: for Oilseed Rape plant response rating: scale 0 to 100 (0 no effect, 100 complete control)
Outline: (§1)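 Greenhouse plants rated visually against untreated controls 13–15 d after treatment, scale 0 = no effect to 100 = complete control. Postemergence sprays went onto potted plants 2–18 cm tall (1–4 leaves); preemergence sprays onto soil freshly sown in loam–sand or silt loam, chemicals formulated in non-phytotoxic solvent with surfactant.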

[5] = test system: galium (catchweed bedstraw, Galium aparine); assay: Test C postemergence, plant response rating; details: for Galium plant response rating: scale 0 to 100 (0 no effect, 100 complete control)
Outline: as §1

[6] = test system: waterhemp (common waterhemp, Amaranthus rudis); assay: Test C postemergence, plant response rating
Outline: as §1

[7] = test system: lambsquarters (Chenopodium album); assay: Test C postemergence, plant response rating; details: for Lambsquarters plant response rating: scale 0 to 100 (0 no effect, 100 complete control)
Outline: as §1

[8] = test system: foxtail, giant (giant foxtail, Setaria faberii); assay: Test C postemergence, plant response rating; details: for Foxtail, Giant plant response rating: scale 0 to 100 (0 no effect, 100 complete control)
Outline: as §1

[9] = test system: crabgrass, large (large crabgrass, Digitaria sanguinalis); assay: Test C postemergence, plant response rating; details: for Crabgrass, Large plant response rating: scale 0 to 100 (0 no effect, 100 complete control)
Outline: as §1

[10] = test system: blackgrass (Alopecurus myosuroides); assay: Test C postemergence, plant response rating; details: for Plant response rating, Blackgrass: scale 0 to 100; for Blackgrass plant response rating: scale 0 to 100 (0 no effect, 100 complete control)
Outline: as §1

[11] = test system: wheat (winter wheat, Triticum aestivum); assay: Test C postemergence, plant response rating
Outline: as §1

[12] = test system: corn (Zea mays); assay: Test C postemergence, plant response rating; details: for Corn plant response rating: scale 0 to 100 (0 no effect, 100 complete control)
Outline: as §1

[13] = test system: oat, wild (wild oat Avena fatua); assay: Test C postemergence, plant response rating; details: for Oat, Wild plant response rating: scale 0 to 100 (0 no effect, 100 complete control)
Outline: as §1

[14] = test system: velvetleaf (Abutilon theophrasti); assay: Test C postemergence, plant response rating
Outline: as §1

[15] = test system: ragweed (common ragweed, Ambrosia elatior); assay: Test C postemergence, plant response rating; details: for Ragweed plant response rating: scale 0 to 100 (0 no effect, 100 complete control)
Outline: as §1

[16] = test system: barnyardgrass (Echinochloa crus-galli); assay: Test C postemergence, plant response rating; details: for Plant response rating, Barnyardgrass: scale 0 to 100; for Barnyardgrass plant response rating: scale 0 to 100 (0 no effect, 100 complete control)
Outline: as §1

[17] = test system: ryegrass, Italian (Italian ryegrass, Lolium multiflorum); assay: Test C postemergence, plant response rating; details: for Ryegrass, Italian plant response rating: scale 0 to 100 (0 no effect, 100 complete control)
Outline: as §1

[18] = test system: nutsedge, yellow (yellow nutsedge, Cyperus esculentus); assay: Test C postemergence, plant response rating; details: for Nutsedge, Yellow plant response rating: scale 0 to 100 (0 no effect, 100 complete control)
Outline: as §1

[19] = test system: soybean (Glycine max); assay: Test C postemergence, plant response rating; details: for Soybean plant response rating: scale 0 to 100 (0 no effect, 100 complete control)
Outline: as §1

[20] = test system: galium (catchweed bedstraw, Galium aparine); assay: Test C preemergence, plant response rating
[21] = 125 g ai/ha, scale 0 to 100 (0 no effect, 100 complete control)

CCCC(=O)c1c(Oc2ncc(Cl)cn2)cccc1C(F)(F)F [Compound 136]
Plant response rating, Kochia ([1]; 31 g ai/ha, scale 0 to 100): 80 | Plant response rating, Kochia ([1]; 62 g ai/ha, scale 0 to 100): 85 | Plant response rating, Kochia ([1]; 125 g ai/ha, scale of 0 to 100): 98 | Plant response rating, Oat, Wild ([2]; 31 g ai/ha, scale 0 to 100): 0 | Plant response rating, Oat, Wild ([2]; 62 g ai/ha, scale 0 to 100): 5 | Plant response rating, Oat, Wild ([2]; 125 g ai/ha, scale of 0 to 100): 45 | Plant response rating, Surinam Grass ([3]; 31 g ai/ha, scale 0 to 100): 25 | Plant response rating, Surinam Grass ([3]; 62 g ai/ha, scale 0 to 100): 10 | Plant response rating, Surinam Grass ([3]; 125 g ai/ha, scale of 0 to 100): 100 | Plant response rating, Oilseed Rape ([4]; 16 g ai/ha, scale of 0 to 100): 65 | Plant response rating, Oilseed Rape ([4]; 31 g ai/ha, scale 0 to 100): 80 | Oilseed Rape plant response rating ([4]; 62 g ai/ha): 80 | Oilseed Rape plant response rating ([4]; 125 g ai/ha): 80 | Plant response rating, Galium ([5]; 16 g ai/ha, scale of 0 to 100): 50 | Plant response rating, Galium ([5]; 31 g ai/ha, scale 0 to 100): 65 | Galium plant response rating ([5]; 62 g ai/ha): 60 | Galium plant response rating ([5]; 125 g ai/ha): 75 | Plant response rating, Waterhemp ([6]; 16 g ai/ha, scale of 0 to 100): 70 | Plant response rating, Waterhemp ([6]; 31 g ai/ha, scale 0 to 100): 70 | Waterhemp plant response rating [6, 21]: 75 | Plant response rating, Lambsquarters ([7]; 16 g ai/ha, scale of 0 to 100): 55 | Plant response rating, Lambsquarters ([7]; 31 g ai/ha, scale 0 to 100): 75 | Lambsquarters plant response rating ([7]; 62 g ai/ha): 80 | Lambsquarters plant response rating ([7]; 125 g ai/ha): 80 | Plant response rating, Foxtail, Giant ([8]; 16 g ai/ha, scale of 0 to 100): 10 | Plant response rating, Foxtail, Giant ([8]; 31 g ai/ha, scale 0 to 100): 20 | Foxtail, Giant plant response rating ([8]; 62 g ai/ha): 10 | Foxtail, Giant plant response rating ([8]; 125 g ai/ha): 25 | Plant response rating, Crabgrass, Large ([9]; 16 g ai/ha, scale of 0 to 100): 5 | Plant response rating, Crabgrass, Large ([9]; 31 g ai/ha, scale 0 to 100): 5 | Crabgrass, Large plant response rating ([9]; 62 g ai/ha): 10 | Crabgrass, Large plant response rating ([9]; 125 g ai/ha): 30 | Plant response rating, Blackgrass ([10]; 16 g ai/ha): 5 | Plant response rating, Blackgrass ([10]; 31 g ai/ha): 10 | Blackgrass plant response rating ([10]; 62 g ai/ha): 10 | Blackgrass plant response rating ([10]; 125 g ai/ha): 15 | Plant response rating, Wheat ([11]; 16 g ai/ha, scale of 0 to 100): 0 | Plant response rating, Wheat ([11]; 31 g ai/ha, scale 0 to 100): 5 | Wheat plant response rating [11, 21]: 5 | Plant response rating, Corn ([12]; 16 g ai/ha, scale of 0 to 100): 5 | Plant response rating, Corn ([12]; 31 g ai/ha, scale 0 to 100): 10 | Corn plant response rating ([12]; 62 g ai/ha): 20 | Corn plant response rating ([12]; 125 g ai/ha): 20 | Plant response rating, Oat, Wild ([13]; 16 g ai/ha, scale of 0 to 100): 5 | Plant response rating, Oat, Wild ([13]; 31 g ai/ha, scale 0 to 100): 5 | Oat, Wild plant response rating ([13]; 62 g ai/ha): 10 | Oat, Wild plant response rating ([13]; 125 g ai/ha): 10 | Plant response rating, Velvetleaf ([14]; 16 g ai/ha, scale of 0 to 100): 20 | Plant response rating, Velvetleaf ([14]; 31 g ai/ha, scale 0 to 100): 50 | Velvetleaf plant response rating [14, 21]: 70 | Plant response rating, Ragweed ([15]; 16 g ai/ha, scale of 0 to 100): 20 | Plant response rating, Ragweed ([15]; 31 g ai/ha, scale 0 to 100): 20 | Ragweed plant response rating ([15]; 62 g ai/ha): 30 | Ragweed plant response rating ([15]; 125 g ai/ha): 35 | Plant response rating, Barnyardgrass ([16]; 16 g ai/ha): 5 | Plant response rating, Barnyardgrass ([16]; 31 g ai/ha): 5 | Barnyardgrass plant response rating ([16]; 62 g ai/ha): 10 | Barnyardgrass plant response rating ([16]; 125 g ai/ha): 10 | Plant response rating, Ryegrass, Italian ([17]; 16 g ai/ha, scale of 0 to 100): 0 | Plant response rating, Ryegrass, Italian ([17]; 31 g ai/ha, scale 0 to 100): 5 | Ryegrass, Italian plant response rating ([17]; 62 g ai/ha): 5 | Ryegrass, Italian plant response rating ([17]; 125 g ai/ha): 10 | Plant response rating, Nutsedge, Yellow ([18]; 16 g ai/ha, scale of 0 to 100): 0 | Plant response rating, Nutsedge, Yellow ([18]; 31 g ai/ha, scale 0 to 100): 0 | Nutsedge, Yellow plant response rating ([18]; 62 g ai/ha): 0 | Nutsedge, Yellow plant response rating ([18]; 125 g ai/ha): 5 | Plant response rating, Soybean ([19]; 16 g ai/ha, scale of 0 to 100): 30 | Plant response rating, Soybean ([19]; 31 g ai/ha, scale 0 to 100): 40 | Soybean plant response rating ([19]; 62 g ai/ha): 50 | Soybean plant response rating ([19]; 125 g ai/ha): 40 | Plant response rating, Galium ([20]; 31 g ai/ha, scale 0 to 100): 0 | Plant response rating, Galium ([20]; 62 g ai/ha, scale 0 to 100): 50 | Plant response rating, Galium ([20]; 125 g ai/ha, scale of 0 to 100): 90
